In EP0162592B1, “Heterocyclic amino compounds” (GLAXO GROUP LIMITED, priority 1984, dated 1985):
Structures can show the parent of a compound that is named as a salt.

Test system: α1-adrenoreceptor
Assay: a1-Adrenoreceptor antagonist action: prevention of phenylephrine contractions in rat isolated anococcygeus muscle (Schild analysis)
Format: cell-based
Conditions: agonist phenylephrine, KB = concentration shifting the agonist log10 (concentration)/response curve to the right by a factor of 2, read-out: KB value at a,-adrenoreceptors
Procedure: The a-adrenoreceptor-type selectivity of the compounds of general formula (I) is similarly assessed by measuring the ability to produce a parallel shift to the right of the logio (concentration)/response curve for the a,-adrenoreceptor agonist phenylephrine. The a,-adrenoreceptor-mediated responses of phenylephrine measured were contractions of the rat isolated anococcygeus muscle (Leighton, Butz & Parameter, Eur.J.Pharmac., 1979, 58 27-38).
Compounds were tested for their ability to prevent the action of α1-adrenoreceptor agonist phenylephrine in the rat isolated anococcygens muscle (Leighton, Butz & Parmeter, Eur. J. Pharmac., 1979 58 27-38). Antagonism of the effect of phenylephrine was quantified by measuring the parallel shift to the right of the phenylephrine log10 (concentration)/response curve in the presence of increasing concentrations of the test compound.
In (1) and (2) potency and competiveness of antagonism were determined by the method of Arunlakshana & Schild (Br. J. Pharmac. 1959, 14 48-58).

c1ccc2c(c1)C[C@H]1CNC[C@@H]1O2 (racemic) [Example 2, (±)-trans-1,2,3,3a,9,9a-Hexahydro[1]benzopyrano[2,3-c]pyrrole, hydrochloride]
Kb: > 10 µM
